Data as given in patent US20110053773A1, “METHODS OF IMPROVING NUTRITIONAL VALUE OF PLANTS” (UNIVERSITY OF TENNESSEE RESEARCH FOUNDATION, priority 2009, published 2011).

How the values were obtained:
[1] = tested on: sweet corn variety 'Incredible'; assay: Sugar and key antioxidant content of sweet corn (Example 1, Table 15); assay type: in vivo, Zea mays var. rugosa; details: rates g ai/ha: Nicosulfuron 35, Mesotrione 105, Topramezone 18, Isoxadifen-ethyl 13, all incl. treated check with atrazine 560 g ai/ha + 1% v/v crop oil concentrate
Description: Herbicide treatments were applied in a water carrier at 23 gallons of solution per acre on a field site near Knoxville, Tenn. and Painter, Va. […] All treatments included a PRE application of atrazine plus metolachlor in order to maintain weed free conditions. In addition, all POST treatments (including the treated check) included atrazine at 560 g ai/ha and crop oil concentrate at 1% v/v. […] Sweet corn was harvested from the center two rows of each four row plot and weighed in the husk.

[2] = tested on: 'Riviera' bermudagrass; assay: Visual tissue whitening of bermudagrass after mesotrione (Example 5); assay type: in vivo, Cynodon dactylon (L.) Pers.; details: 0.28 kg/ha postemergence
Description: (§1) Greenhouse and laboratory studies were initiated with ‘Riviera’ bermudagrass (Cynodon dactylon (L.) Pers.) treated postemergence with mesotrione at 0.28 kg×ha^−1 and sampled for tissue pigment concentrations at 0, 3, 7, 14, 21, 28 and 35 days after treatment (DAT; Table 16). […] Due to the antioxidant activity of these carotenoid pigments, these increases should improve bermudagrass stress tolerance (Kopsell et al., 2010).

[3] = tested on: 'Riviera' bermudagrass; assay: Leaf tissue pigment concentrations of bermudagrass after mesotrione (Example 5, Table 16); assay type: in vivo, Cynodon dactylon (L.) Pers.; details: for Blade tissue pigments: Beta-carotene / Blade tissue pigments: Lutein / Blade tissue pigments: Phytoene / Blade tissue pigments: Total Carotenoids / Blade tissue pigments: Violaxanthin / Blade tissue pigments: Zeaxanthin: 0.28 kg ai×ha^−1
Description: as §1

[4] = tested on: sweet corn (Zea mays var. rugosa) cultivar 'Incredible'; assay: Content analysis of sweet corn ears: crude protein, amino acids, detergent fiber, fatty acids, minerals (Example 1); assay type: in vivo; details: POST at b59 rates; every treatment incl. check also got atrazine 560 g ai/ha + COC 1% v/v; relative to treated check (atrazine), check=0
Description: Herbicide treatments were applied in a water carrier at 23 gallons of solution per acre on a field site near Knoxville, Tenn. and Painter, Va. Treatments include the following: 1) nicosulfuron at 35 g ai/ha (Accent); 2) mesotrione at 105 g ai/ha (Callisto); 3) nicosulfuron at 35 g ai/ha+mesotrione at 105 g ai/ha (Callisto+Accent); 4) tembotrione at 92 g ai/ha+isoxadifen-ethyl at 46 g ai/ha (Laudis); 5) topramezone at 15 g ai/ha (Impact); 6) nicosulfuron at 35 g ai/ha+isoxadifen-ethyl at 9 g ai/ha (Accent Q); 7) nicosulfuron at 35 g ai/ha+isoxadifen-ethyl at 9 g ai/ha+topramezone at 15 g ai/ha (Accent Q+Impact); 8) nicosulfuron 35 g ai/ha+isoxadifen-ethyl at 9 g ai/ha+mesotrione at 105 g ai/ha (Accent Q+Callisto); 9) treated check (atrazine or Aatrex). All treatments included a PRE application of atrazine plus metolachlor in order to maintain weed free conditions. In addition, all POST treatments (including the treated check) included atrazine at 560 g ai/ha and crop oil concentrate at 1% v/v. […] Sweet corn was harvested from the center two rows of each four row plot and weighed in the husk.

CS(=O)(=O)c1ccc(C(=O)C2C(=O)CCCC2=O)c([N+](=O)[O-])c1 [Mesotrione*CALLISTO, mesotrione]
Fructose, percent increase [1]: 18% | Gamma-tocopherol, percent increase [1]: 5% | Glucose, percent increase [1]: 19% | Lutein, percent increase [1]: 17% | Maltose, percent increase [1]: 15% | Sucrose, percent increase [1]: −32% | Total Sugars, percent increase [1]: −4% | Zeaxanthin, percent increase [1]: 1% | antheraxanthin, percent increase [1]: 14% | visual tissue whitening, maximum ([2]; by 14 DAT): 38% | recovery of discolored tissue ([2]; by 21 DAT): re-greening of discolored tissue was observed | Blade tissue pigments: Beta-carotene ([3]; 0 days after treatment): 17.2 mg/100 g fresh weight | Blade tissue pigments: Lutein ([3]; 0 days after treatment): 23.6 mg/100 g fresh weight | Blade tissue pigments: Phytoene ([3]; 0 days after treatment): 0.0 mg/100 g fresh weight | Blade tissue pigments: Total Carotenoids ([3]; 0 days after treatment): 57.5 mg/100 g fresh weight | Blade tissue pigments: Violaxanthin ([3]; 0 days after treatment): 6.9 mg/100 g fresh weight | Blade tissue pigments: Zeaxanthin ([3]; 0 days after treatment): 3.2 mg/100 g fresh weight | Blade tissue pigments: Beta-carotene ([3]; 3 days after treatment): 11.6 mg/100 g fresh weight | Blade tissue pigments: Lutein ([3]; 3 days after treatment): 14.8 mg/100 g fresh weight | Blade tissue pigments: Phytoene ([3]; 3 days after treatment): 37.5 mg/100 g fresh weight | Blade tissue pigments: Total Carotenoids ([3]; 3 days after treatment): 42.9 mg/100 g fresh weight | Blade tissue pigments: Violaxanthin ([3]; 3 days after treatment): 1.6 mg/100 g fresh weight | Blade tissue pigments: Zeaxanthin ([3]; 3 days after treatment): 3.1 mg/100 g fresh weight | Blade tissue pigments: Beta-carotene ([3]; 7 days after treatment): 7.4 mg/100 g fresh weight | Blade tissue pigments: Lutein ([3]; 7 days after treatment): 14.1 mg/100 g fresh weight | Blade tissue pigments: Phytoene ([3]; 7 days after treatment): 38.0 mg/100 g fresh weight | Blade tissue pigments: Total Carotenoids ([3]; 7 days after treatment): 35.6 mg/100 g fresh weight | Blade tissue pigments: Violaxanthin ([3]; 7 days after treatment): 1.6 mg/100 g fresh weight | Blade tissue pigments: Zeaxanthin ([3]; 7 days after treatment): 3.3 mg/100 g fresh weight | Blade tissue pigments: Beta-carotene ([3]; 14 days after treatment): 7.6 mg/100 g fresh weight | Blade tissue pigments: Lutein ([3]; 14 days after treatment): 16.4 mg/100 g fresh weight | Blade tissue pigments: Phytoene ([3]; 14 days after treatment): 11.7 mg/100 g fresh weight | Blade tissue pigments: Total Carotenoids ([3]; 14 days after treatment): 47.2 mg/100 g fresh weight | Blade tissue pigments: Violaxanthin ([3]; 14 days after treatment): 3.5 mg/100 g fresh weight | Blade tissue pigments: Zeaxanthin ([3]; 14 days after treatment): 3.8 mg/100 g fresh weight | Blade tissue pigments: Beta-carotene ([3]; 21 days after treatment): 11.4 mg/100 g fresh weight | Blade tissue pigments: Lutein ([3]; 21 days after treatment): 21.2 mg/100 g fresh weight | Blade tissue pigments: Phytoene ([3]; 21 days after treatment): 0.0 mg/100 g fresh weight | Blade tissue pigments: Total Carotenoids ([3]; 21 days after treatment): 60.1 mg/100 g fresh weight | Blade tissue pigments: Violaxanthin ([3]; 21 days after treatment): 4.0 mg/100 g fresh weight | Blade tissue pigments: Zeaxanthin ([3]; 21 days after treatment): 4.7 mg/100 g fresh weight | Blade tissue pigments: Beta-carotene ([3]; 28 days after treatment): 18.9 mg/100 g fresh weight | Blade tissue pigments: Lutein ([3]; 28 days after treatment): 32.1 mg/100 g fresh weight | Blade tissue pigments: Phytoene ([3]; 28 days after treatment): 0.0 mg/100 g fresh weight | Blade tissue pigments: Total Carotenoids ([3]; 28 days after treatment): 77.2 mg/100 g fresh weight | Blade tissue pigments: Violaxanthin ([3]; 28 days after treatment): 2.8 mg/100 g fresh weight | Blade tissue pigments: Zeaxanthin ([3]; 28 days after treatment): 5.7 mg/100 g fresh weight | Blade tissue pigments: Beta-carotene ([3]; 35 days after treatment): 21.2 mg/100 g fresh weight | Blade tissue pigments: Lutein ([3]; 35 days after treatment): 37.1 mg/100 g fresh weight | Blade tissue pigments: Phytoene ([3]; 35 days after treatment): 0.0 mg/100 g fresh weight | Blade tissue pigments: Total Carotenoids ([3]; 35 days after treatment): 92.7 mg/100 g fresh weight | Blade tissue pigments: Violaxanthin ([3]; 35 days after treatment): 6.8 mg/100 g fresh weight | Blade tissue pigments: Zeaxanthin ([3]; 35 days after treatment): 6.4 mg/100 g fresh weight | pigments in treated plants ([3]; 0.28 kg/ha postemergence, after initial decrease with tissue whitening): most recovered to untreated levels by 21 DAT | lutein, β-carotene, and zeaxanthin versus untreated control plants ([3]; 0.28 kg/ha postemergence, at 35 DAT): accumulated to levels exceeding untreated control plants | phytoene detection ([3]; 0.28 kg/ha postemergence, sampled 0 to 35 DAT): only detected in mesotrione treated plants at 3, 7, and 14 DAT | Acid DF [4]: 10 % of check | Alanine [4]: 4 % of check | Amino Acid [4]: 6 % of check | Aspartic ac [4]: 7 % of check | Cysteine [4]: 6 % of check | Glutamic ac [4]: 6 % of check | Glycine [4]: 4 % of check | Isoleucine [4]: 6 % of check | Leucine [4]: 6 % of check | Lysine [4]: 12 % of check | Methionine [4]: 2 % of check | Neutral DF [4]: 13 % of check | Proline [4]: 9 % of check | Protein [4]: 7 % of check | Threonine [4]: 16 % of check | Valine [4]: 7 % of check | calcium [4]: 0 % of check | copper [4]: 0 % of check | iron [4]: 21 % of check | magnesium [4]: 20 % of check | manganese [4]: 25 % of check | mon fattyac [4]: 9 % of check | phosphorous [4]: 12 % of check | polyfattyac [4]: 12 % of check | potassium [4]: 12 % of check | sat fattyac [4]: 7 % of check | sodium [4]: 21 % of check | tot fattyac [4]: 11 % of check | zinc [4]: 16 % of check
